Earlier results, collected in patent US20240164377A1, “LOW VOLATILITY PROMOTING WATER CONDITIONING ADJUVANTS” (Adjuvants Unlimited LLC, priority 2014, published 2024).

| SMILES | Volatility compared with another salt (in words) (background statement) | Volatility relative to the diglycolamine salt (reported, see WO 2011/019652 A2) |
| --- | --- | --- |
| COc1c(Cl)ccc(Cl)c1C(=O)O.NCCOCCO [diglycolamine salt of dicamba] | lower volatility than the dimethylamine salt of dicamba |  |
| COc1c(Cl)ccc(Cl)c1C(=O)O [free acid form of dicamba, 3,6-dichloro-2-methoxybenzoic acid] |  | about 100 times |
